The source of these data is publication PMC5540198, “A phase I trial of ganetespib in combination with paclitaxel and trastuzumab in patients with human epidermal growth factor receptor-2 (HER2)-positive metastatic breast cancer” (Breast Cancer Research : BCR, 2017).

Where two headings read alike, the source gives them in different places. Marks after values point to notes of the source that are not given here.

The subject of series [1] is HER2-positive and ER-positive breast cancer. Details: method as in PMID 18430202. As to conditions: intravenous, single agent; among 10 patients; cited from earlier work.
Series [2] has as its system trastuzumab-refractory HER2-positive metastatic breast cancer. Set-up: method as in PMID 18048823, PMID 21558407. Particulars: in combination with trastuzumab; cited from earlier work.
Series [3] has as its system HER2-positive metastatic breast cancer. Kind of series: Phase I trial: anti-tumor activity by RECIST 1.1. The format is in vivo, human. As to the method: The sequence of administration was trastuzumab (2 mg/kg) followed by paclitaxel (80 mg/m^2) followed by ganetespib. If the patient’s last dose of trastuzumab was >21 days before enrollment, they received a loading dose of trastuzumab at 4 mg/kg over 90 minutes. Ganetespib was then administered intravenously over 60 minutes. The starting dose of ganetespib was 100 mg/m^2, and if there were no DLTs the next cohort would escalate to 150 mg/m^2. A further dose level of 125 mg/m^2 was incorporated in the circumstance of good tolerance of the 100 mg/m^2 but poor tolerance of the 150 mg/m^2 dose levels. There was no dose escalation for paclitaxel and trastuzumab. Therapy was continued until disease progression or unacceptable toxicity. Patients were evaluated for response initially after two cycles and then every three cycles thereafter using the RECIST criteria. All patients with PR or complete response (CR) were required to have confirmation of response 4 weeks after the criteria for response were first met. The best overall response was defined as the best response recorded from the start of treatment until disease progression or withdrawal from the study. […] The CBR was defined as the proportion of patients whose best overall response, according to RECIST, was CR, PR, or SD lasting for at least 24 weeks.

Another series has as its system metastatic breast cancer. Details: method as in PMID 24512858. Particulars: cited from earlier work.
Series [4] concerns patients with HER2-positive metastatic breast cancer. Kind of series: Phase I dose-escalation trial: safety, DLT and RP2D of ganetespib with paclitaxel and trastuzumab. The format is in vivo, human. An excerpt: Patients were eligible if they were aged ≥ 18 years, had locally advanced or metastatic HER2-positive disease (defined as FISH ratio ≥ 2.0 or immunohistochemistry (IHC) 3+), ECOG ≤ 2, measurable disease per RECIST 1.1 [23], and adequate end organ function (defined as hemoglobin ≥ 9 g/dl, absolute neutrophil count (ANC) ≥ 1.5 × 10^9/L, platelets ≥ 100 × 10^9/L, bilirubin ≤ 1.5 upper limit of normal (ULN), aspartate aminotransferase (AST) and alanine aminotransferase (ALT) ≤ 2.5 ULN, and serum creatinine ≤ 1.5 ULN). Patients must have received prior trastuzumab and those with estrogen receptor (ER)-positive disease must have received prior endocrine therapy. Any number of prior lines of chemotherapy in the metastatic setting was allowed. Progression on prior treatment with pertuzumab and T-DM1 was required (unless heavily pretreated prior to FDA approval of pertuzumab for first-line treatment of HER2-positive metastatic breast cancer (6/2012) and/or T-DM1 (2/2013)).
Patients received intravenous infusions of trastuzumab and paclitaxel with ganetespib on days 1, 8, and 15 and of trastuzumab and paclitaxel on day 22 of a 28-day cycle. The sequence of administration was trastuzumab (2 mg/kg) followed by paclitaxel (80 mg/m^2) followed by ganetespib. If the patient’s last dose of trastuzumab was >21 days before enrollment, they received a loading dose of trastuzumab at 4 mg/kg over 90 minutes. Ganetespib was then administered intravenously over 60 minutes. The starting dose of ganetespib was 100 mg/m^2, and if there were no DLTs the next cohort would escalate to 150 mg/m^2. A further dose level of 125 mg/m^2 was incorporated in the circumstance of good tolerance of the 100 mg/m^2 but poor tolerance of the 150 mg/m^2 dose levels. There was no dose escalation for paclitaxel and trastuzumab. Therapy was continued until disease progression or unacceptable toxicity.
Patients were examined and assessed for toxicities during and prior to each cycle. Toxicity was graded according to National Cancer Institute (NCI) CTCAE version 4.0 (http://ctep.cancer.gov/protocolDevelopment/electronic_applications/ctc.htm#ctc_40). Patients were evaluated for DLT during cycle 1. DLT was defined as any drug-related grade ≥ 4 nonhematologic adverse events (AEs) or any grade 3 nonhematologic AEs not improving to baseline or grade ≤ 1 by day 14; grade 4 neutropenia lasting ≥ 7 days, or febrile neutropenia, grade 4 thrombocytopenia, or any grade 3 thrombocytopenia that has not recovered to grade ≤ 2 by day 7; or any treatment-related toxicity prompting a dose reduction of ganetespib during the DLT observation period.
Paclitaxel dose reductions were not permitted during the DLT observation period. For dosing beyond cycle 1, paclitaxel was held if patients experienced any other grade 3 or 4 toxicity thought to be related to paclitaxel until symptoms resolved to grade 1/baseline grade. One dose reduction for paclitaxel to 65 mg/m^2 was permitted.

Series [5] relates to HER2-positive metastatic breast cancer. Set-up: method as in PMID 22781552. Particulars: plus trastuzumab; cited from earlier work.
Details of series [6]: method as in earlier work. Particulars: PET agent labelled with ^124I; cited from earlier work.
Series [7] in a line: Pharmacokinetics of paclitaxel in plasma, cycle 1 day 8 to day 9. Format: in vivo, human. As for the experimental part:
Blood samples for determination of plasma concentrations of paclitaxel were collected on cycle 1, day 8 through cycle 1, day 9 at the following time points after trastuzumab infusion and relative to the start of the paclitaxel infusion: 5 minutes prior to treatment, and 30 and 60 minutes (immediately prior to stopping the paclitaxel infusion pump and starting the ganetespib infusion) after start of paclitaxel infusion. Blood samples were also collected at the following time points after starting ganetespib infusion: 1.5, 2, 4, 7, 21, 24, 27, and 31 hours. Each blood sample (3–5 ml) was collected in sodium heparin tubes and transferred into two polypropylene tubes (1 ml each) and stored at –80 °C. PK were performed in collaboration with Synta Pharmaceuticals, Inc. PK parameters of paclitaxel (such as the area under the curve (AUC) and the maximum serum concentration (Cmax)) were examined descriptively to evaluate the effect of ganetespib on these measures.

The test system of series [8] is HER2-positive breast cancer. Details: method as in PMID 23580070. Particulars: in combination with trastuzumab; cited from earlier work.

Consider `CCNC(=O)c1noc(-c2cc(C(C)C)c(O)cc2O)c1-c1ccc(CN2CCOCC2)cc1` [NVP-AUY922], for which, in series [1], the “confirmed PR by RECIST, number” value was “one” and the “partial metabolic responses on FDG-PET, number” value is listed as “two”.

For the compound `C=CCNC1=C2C[C@@H](C)C[C@H](OC)[C@H](O)[C@@H](C)/C=C(\C)[C@H](OC(N)=O)[C@@H](OC)/C=C\C=C(/C)C(=O)NC(=CC1=O)C2=O` [tanespimycin], in [2], the “clinical benefit rate (CBR)” value was 59% and the response rate is 22%.

On to `CC(C)c1cc(-c2n[nH]c(=O)n2-c2ccc3c(ccn3C)c2)c(O)cc1O` [ganetespib, 5-(2,4-dihydroxy-5-(1-methylethyl)phenyl)-4-(1-methyl-1H-indol-5-yl)-2,4-dihydro-(1,2,4)triazol-3-one], for which the “overall response rate (ORR), confirmed partial responses” value in series [3] (ganetespib 100 or 150 mg/m^2 days 1, 8, 15 with weekly paclitaxel 80 mg/m^2 and trastuzumab 2 mg/kg, 2/9 patients, both in 150 mg/m^2 cohort) turned out to be 22%. Moreover, the “clinical benefit rate (CBR: CR, PR or SD at least 24 weeks)” value in series [3] (triplet regimen, 4/9 patients) turned out to be 44%. Besides, in series [3] (triplet regimen, nine patients), the median progression-free survival came out at 20 weeks and the “progression-free survival, range” value is listed as 8–55 weeks. In addition, in the series with metastatic breast cancer (single-agent ganetespib), the ORR was 15%. In the series on metastatic breast cancer (single-agent, HER2-positive metastatic breast cancer), the “cases of SD in HER2-positive patients, number” value is recorded as “six”. Besides, the “confirmed PRs, number” value in the series with metastatic breast cancer (single-agent, HER2-positive, trastuzumab-refractory metastatic breast cancer) is “two”. For the same compound, the “SDs, total number” value in the series on metastatic breast cancer (single-agent, six HER2-positive and one TNBC) is given as “seven”. For the same compound, the “recommended phase II dose (RP2D)” value in [4] (in combination with weekly paclitaxel plus trastuzumab) is 150 mg/m^2. Moreover, in [4] (nine patients), the “anemia, grade 1/2, drug-related” value came to 44%; the “diarrhea, grade 1/2, drug-related” value is listed as 78%; the “elevated AST or ALT, grade 1/2, drug-related” value is 32%; the “fatigue, grade 1/2, drug-related” value is given as 67%. Also, in series [4] (nine patients), the “nausea, grade 1/2, drug-related” value is given as 32% and the “rash, grade 1/2, drug-related” value is given as 32%. In addition, the “grade 4 AEs related to ganetespib” value in [4] (nine patients, CTCAE 4.0) is “no grade 4 AEs”. Further, the “patients with dose-limiting toxicities (DLTs)” value in [4] (nine patients, cycle 1, 100 and 150 mg/m^2 cohorts) is “None”. In [4] (of nine patients), the “Grade 3 ALT, increased, N patients” value is reported as 1; the “Grade 3 phosphorus, decreased, N patients” value turned out to be 1; the “Grade 3 pruritus, N patients” value was determined as 1.

`CO[C@H]1/C=C\C=C(/C)C(=O)NC2=CC(=O)C(NCCN(C)C)=C(C[C@@H](C)C[C@H](OC)[C@H](O)[C@@H](C)/C=C(\C)[C@@H]1OC(N)=O)C2=O` [alvespimycin]: in series [5], the “partial response (PR), number of cases” value is reported as “one” and the “stable disease (SD) lasting >6 months, number of cases” value is given as “six”.

For orientation: half-life means the time needed for the level to fall by half in the phase considered. As for `CC(C)NCCCn1c(Sc2cc3c(cc2[124I])OCO3)nc2c(N)ncnc21` [^124I-PU-H71], the half-life in series [6] was 96.5 h.

A word on the Tmax: it is the time from dosing to the highest level. Broadly, the Cmax is the highest concentration seen after dosing. On to `CC(=O)O[C@H]1C(=O)[C@@]2(C)[C@H]([C@H](OC(=O)c3ccccc3)[C@]3(O)C[C@H](OC(=O)[C@H](O)[C@@H](NC(=O)c4ccccc4)c4ccccc4)C(C)=C1C3(C)C)[C@]1(OC(C)=O)CO[C@@H]1C[C@@H]2O` [paclitaxel], for which, in series [7] (human, in vivo, iv), the Tmax stood at 1.0 ± 0.0 h and the half-life was 13.6 ± 3.3 h. In [7] (human, in vivo, iv, Tmax), the Tmax stood at 0.8 ± 0.3 h. For the same compound, the peak level in [7] (human, in vivo, iv, paclitaxel 80 mg/m^2 i.v., ganetespib 100 mg/m^2, n=3) (Cmax) was 3.34 ± 1.27 µg/mL. This compound also registered a T1/2 in series [7] (paclitaxel 80 mg/m^2 i.v., ganetespib 100 mg/m^2, n=3) of 12.9 ± 0.4 h. For the same compound, the “Grade 3 blurred vision/grade 3 dry eyes (in same patient), N patients” value in series [4] (of nine patients, attributable to paclitaxel) was 1^a.

Take `C=CCNc1c(O)cc2c(O)c1C[C@@H](C)C[C@H](OC)[C@H](O)[C@@H](C)/C=C(\C)[C@H](OC(N)=O)[C@@H](OC)/C=C\C=C(/C)C(=O)N2` [retaspimycin]: in series [8], the “patients with stable disease” value is 62%.
